Counter-ions that a name gives are not always drawn.
Target: human KAT II (hKAT II) enzyme (Homo sapiens, UniProt Q8N5Z0)
Test: KAT II Inhibition Spectra Assay
Type: biochemical
Settings: Table 5; hKAT II, decrease in OD370, 37° C., 15-20 h; read-out: KATII IC50
Experimental: Formation of kynurenic acid (KYNA) is indirectly assessed by a decrease in light absorbance at 370 nm (OD370) as the L-kynurenine (KYN) substrate is converted by the human KAT II (hKAT II) enzyme into KYNA. An inhibitor would therefore inhibit the decrease in OD370.
The protocol was performed by placing the following reagents into a Costar 384 well black plate (30 μL total assay volume/well): • 10 μL of 3× concentrated compound; • 10 μL of 3× concentrated substrate mix (BGG (Sigma G-5009); 3 mM L-Kynurenine in 150 mM Tris Acetate (Sigma K3750); 3 mM α-ketoglutaric acid in 150 mM Tris Acetate (Sigma K2010); and 210 μM pyridoxal 5-phosphate (PLP) in 150 mM Tris Acetate (Sigma 9255)); and • 10 μL of 3× concentrated enzyme (15 nM enzyme in 150 mM Tris Acetate with 0.3% bovine serum).
Plates were sealed and incubated at 37° C. for 15-20 h before reading OD370 on a SpectraMax Plus plate reader. IC50s were generated by comparing the efficacy of compounds across a concentration range to inhibit a reduction in the OD370 value relative to assay wells with DMSO added in place of concentrated compound.

Chain of human KAT II (hKAT II) enzyme (Q8N5Z0 30-425): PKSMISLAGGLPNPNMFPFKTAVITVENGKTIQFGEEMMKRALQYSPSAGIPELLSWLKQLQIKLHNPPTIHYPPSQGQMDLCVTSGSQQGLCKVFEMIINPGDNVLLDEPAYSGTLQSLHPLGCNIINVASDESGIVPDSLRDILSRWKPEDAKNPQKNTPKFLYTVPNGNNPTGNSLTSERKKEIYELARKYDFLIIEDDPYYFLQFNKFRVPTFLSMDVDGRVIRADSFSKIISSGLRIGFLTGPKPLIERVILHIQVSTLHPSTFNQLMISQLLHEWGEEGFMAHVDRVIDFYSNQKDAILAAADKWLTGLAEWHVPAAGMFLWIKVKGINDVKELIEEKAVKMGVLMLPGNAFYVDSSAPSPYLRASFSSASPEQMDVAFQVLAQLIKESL

Compared with `NC1Cc2cccnc2N(O)C1=O` (stereo not shown) [Example 1, 3-amino-1-hydroxy-3,4-dihydro-1,8-naphthyridin-2(1H)-one, trifluoroacetate salt], `NC1Cc2ncccc2N(O)C1=O` (stereo not shown) [Example 9, 3-amino-1-hydroxy-3,4-dihydro-1,5-naphthyridin-2(1H)-one, dihydrochloride salt] is 42-fold higher in IC50: 52.7 nM for the first, 2230 nM for the second.

`NC1Cc2cc(F)ccc2N(O)C1=O` (stereo not shown) [Example 2, 3-amino-6-fluoro-1-hydroxy-3,4-dihydroquinolin-2(1H)-one, hydrochloride salt] and `NC1Cc2cc(Cl)ccc2N(O)C1=O` (stereo not shown) [Example 16] are within 1.5-fold of each other in IC50: 23.4 nM for the first, 22.7 nM for the second.

Going from `NC1Cc2cccc(C(F)(F)F)c2N(O)C1=O` (stereo not shown) [Example 3, 3-amino-1-hydroxy-8-(trifluoromethyl)-3,4-dihydroquinolin-2(1H)-one] to `N[C@H]1Cc2cccc(C(F)(F)F)c2N(O)C1=O` [Example 20], the IC50 falls from 204 nM to 127 nM (1.6-fold). The second is the more potent here.

First: N[C@@H]1Cc2ccc(Br)cc2N(O)C1=O [Example 5, (3R)-3-amino-7-bromo-1-hydroxy-3,4-dihydroquinolin-2(1H)-one]
Second: N[C@H]1Cc2ccc(Br)cc2N(O)C1=O [Example 6, (3S)-3-amino-7-bromo-1-hydroxy-3,4-dihydroquinolin-2(1H)-one]
The IC50 of the first is 5.2-fold higher: 131 nM for the first, 25.4 nM for the second. The second is the more potent here.

First: C[C@H]1c2ccccc2N(O)C(=O)[C@H]1N [Example 7, (3S,4S)-3-amino-1-hydroxy-4-methyl-3,4-dihydroquinolin-2(1H)-one, hydrochloride salt]
Second: N[C@@H]1Cc2ccccc2N(O)C1=O [Example 14]
The IC50 of the first is 12-fold higher: 3280 nM for the first, 270 nM for the second. The second is the more potent here.

Compared with `Cc1cc(Cl)cc2c1N(O)C(=O)C(N)C2` (stereo not shown) [Example 8, 3-amino-6-chloro-1-hydroxy-8-methyl-3,4-dihydroquinolin-2(1H)-one], `N[C@H]1Cc2cc(Cl)cc(F)c2N(O)C1=O` [Example 31] is 12-fold lower in IC50: 608 nM for the first, 49.7 nM for the second. The second is the more potent here.

First: NC1Cc2cc(C(F)(F)F)ccc2N(O)C1=O (stereo not shown) [Example 10, 3-amino-1-hydroxy-6-(trifluoromethyl)-3,4-dihydroquinolin-2(1H)-one, hydrochloride salt]
Second: N[C@H]1Cc2cc(OC(F)(F)F)ccc2N(O)C1=O [Example 32]
The IC50 of the first is 2.1-fold higher: 73.7 nM for the first, 35.9 nM for the second.

`NC1Cc2c(ccc3ccccc23)N(O)C1=O` (stereo not shown) [Example 11, 2-amino-4-hydroxy-1,2-dihydrobenzo[f]quinolin-3(4H)-one] and `NC1Cc2ccc(-c3ccccc3)cc2N(O)C1=O` (stereo not shown) [Example 42, 3-amino-1-hydroxy-7-phenyl-3,4-dihydroquinolin-2(1H)-one, trifluoroacetate salt] are within 1.5-fold of each other in IC50: 121 nM for the first, 101 nM for the second.

Compared with `COc1cccc2c1C[C@H](N)C(=O)N2O` [Example 12, (3S)-3-amino-1-hydroxy-5-methoxy-3,4-dihydroquinolin-2(1H)-one, hydrochloride salt], `N[C@H]1Cc2c(Cl)cccc2N(O)C1=O` [Example 22] is 8.4-fold lower in IC50: 379 nM for the first, 45.2 nM for the second. The second is the more potent here.

Going from `COc1cccc(-c2ccc3c(c2)N(O)C(=O)C(N)C3)c1` (stereo not shown) [Example 13, 3-amino-1-hydroxy-7-(3-methoxyphenyl)-3,4-dihydroquinolin-2(1H)-one, hydrochloride salt] to `NC1Cc2ccc(-c3cccc(Cl)c3)cc2N(O)C1=O` (stereo not shown) [Example 52, 3-amino-7-(3-chlorophenyl)-1-hydroxy-3,4-dihydroquinolin-2(1H)-one, trifluoroacetate salt], the IC50 rises from 57.3 nM to 139 nM (2.4-fold). The first is the more potent here.

Compared with `NC1Cc2ccc(Cl)cc2N(O)C1=O` (stereo not shown) [Example 15], `Cc1ccc2c(c1)N(O)C(=O)C(N)C2` (stereo not shown) [Example 17] is 8.6-fold higher in IC50: 11.1 nM for the first, 95.1 nM for the second. The first is the more potent here.

First: Cc1ccc2c(c1)CC(N)C(=O)N2O (stereo not shown) [Example 18]
Second: NC1Cc2cc(C3CC3)ccc2N(O)C1=O (stereo not shown) [Example 21]
The IC50 of the first is 3-fold higher: 139 nM for the first, 46.2 nM for the second.

First: Cc1cccc2c1N(O)C(=O)C(N)C2 (stereo not shown) [Example 19]
Second: N[C@H]1Cc2cccc(F)c2N(O)C1=O [Example 36]
The IC50 of the first is 38-fold higher: 3040 nM for the first, 79.3 nM for the second. The second is the more potent here.

`NC1Cc2cc(Cl)cc(C(F)(F)F)c2N(O)C1=O` (stereo not shown) [Example 23] and `N[C@H]1Cc2cc(Cl)cc(C(F)(F)F)c2N(O)C1=O` [Example 35] are within 1.5-fold of each other in IC50: 65.3 nM for the first, 49.2 nM for the second.

Going from `N[C@H]1Cc2cc(Br)cc(C(F)(F)F)c2N(O)C1=O` [Example 24] to `N[C@H]1Cc2cc(-c3ccc(C(F)(F)F)cc3)cc(C(F)(F)F)c2N(O)C1=O` [Example 28], the IC50 rises from 50 nM to 1330 nM (27-fold). The first is the more potent here.

Compared with `CC(C)Oc1ccc2c(c1)N(O)C(=O)[C@@H](N)C2` [Example 25], `COc1ccc2c(c1)N(O)C(=O)C(N)C2` (stereo not shown) [Example 29] is 4.6-fold lower in IC50: 48.4 nM for the first, 10.5 nM for the second. The second is the more potent here.

Compared with `CCc1ccc2c(c1)N(O)C(=O)C(N)C2` (stereo not shown) [Example 26], `NC1Cc2ccc(C3CC3)cc2N(O)C1=O` (stereo not shown) [Example 30] is 3.7-fold lower in IC50: 88 nM for the first, 23.7 nM for the second.

Going from `N[C@H]1Cc2c(F)cccc2N(O)C1=O` [Example 27] to `N#Cc1cccc2c1N(O)C(=O)C(N)C2` (stereo not shown) [Example 33], the IC50 falls from 51.9 nM to 33 nM (1.6-fold). The second is the more potent here.

Going from `N[C@H]1Cc2ccc(OCc3ccccc3)cc2N(O)C1=O` [Example 34] to `NC1Cc2ccc(-c3ccccc3Cl)cc2N(O)C1=O` (stereo not shown) [Example 45, 3-amino-7-(2-chlorophenyl)-1-hydroxy-3,4-dihydroquinolin-2(1H)-one, trifluoroacetate salt], the IC50 rises from 35.6 nM to 235 nM (6.6-fold).

Going from `N[C@H]1Cc2cccc(OC(F)(F)F)c2N(O)C1=O` [Example 37] to `NC1Cc2ccc(-c3ccccc3OC(F)(F)F)cc2N(O)C1=O` (stereo not shown) [Example 41, 3-amino-1-hydroxy-7-[2-(trifluoromethoxy)phenyl]-3,4-dihydroquinolin-2(1H)-one, trifluoroacetate salt], the IC50 rises from 34.1 nM to 257 nM (7.5-fold). The first is the more potent here.

`NC1Cc2ccc(-c3cccc(OC(F)(F)F)c3)cc2N(O)C1=O` (stereo not shown) [Example 38, 3-amino-1-hydroxy-7-[3-(trifluoromethoxy)phenyl]-3,4-dihydroquinolin-2(1H)-one, trifluoroacetate salt] and `NC1Cc2ccc(-c3cccc(C(F)(F)F)c3)cc2N(O)C1=O` (stereo not shown) [Example 46, 3-amino-1-hydroxy-7-[3-(trifluoromethyl)phenyl]-3,4-dihydroquinolin-2(1H)-one, trifluoroacetate salt] are within 1.5-fold of each other in IC50: 133 nM for the first, 128 nM for the second.

`Cc1ccc(-c2ccc3c(c2)N(O)C(=O)C(N)C3)cc1` (stereo not shown) [Example 39, 3-amino-1-hydroxy-7-(4-methylphenyl)-3,4-dihydroquinolin-2(1H)-one, trifluoroacetate salt] and `COc1ccc(-c2ccc3c(c2)N(O)C(=O)C(N)C3)cc1` (stereo not shown) [Example 56, 3-amino-1-hydroxy-7-(4-methoxyphenyl)-3,4-dihydroquinolin-2(1H)-one, trifluoroacetate salt] are within 1.5-fold of each other in IC50: 136 nM for the first, 91.1 nM for the second.

`NC1Cc2ccc(-c3cccc(F)c3F)cc2N(O)C1=O` (stereo not shown) [Example 40, 3-amino-7-(2,3-difluorophenyl)-1-hydroxy-3,4-dihydroquinolin-2(1H)-one, trifluoroacetate salt] and `NC1Cc2ccc(-c3cc(F)ccc3F)cc2N(O)C1=O` (stereo not shown) [Example 50, 3-amino-7-(2,5-difluorophenyl)-1-hydroxy-3,4-dihydroquinolin-2(1H)-one, trifluoroacetate salt] are within 1.5-fold of each other in IC50: 122 nM for the first, 103 nM for the second.

`NC1Cc2ccc(-c3cc(Cl)ccc3Cl)cc2N(O)C1=O` (stereo not shown) [Example 43, 3-amino-7-(2,5-dichlorophenyl)-1-hydroxy-3,4-dihydroquinolin-2(1H)-one, trifluoroacetate salt] and `NC1Cc2ccc(-c3cc(Cl)ccc3F)cc2N(O)C1=O` (stereo not shown) [Example 54, 3-amino-7-(5-chloro-2-fluorophenyl)-1-hydroxy-3,4-dihydroquinolin-2(1H)-one, trifluoroacetate salt] are within 1.5-fold of each other in IC50: 133 nM for the first, 137 nM for the second.

`NC1Cc2ccc(-c3ccc(F)c(F)c3)cc2N(O)C1=O` (stereo not shown) [Example 44, 3-amino-7-(3,4-difluorophenyl)-1-hydroxy-3,4-dihydroquinolin-2(1H)-one, trifluoroacetate salt] and `COc1ccc(-c2ccc3c(c2)N(O)C(=O)C(N)C3)cc1F` (stereo not shown) [Example 49, 3-amino-7-(3-fluoro-4-methoxyphenyl)-1-hydroxy-3,4-dihydroquinolin-2(1H)-one, trifluoroacetate salt] are within 1.5-fold of each other in IC50: 118 nM for the first, 105 nM for the second.

`Cc1cccc(-c2ccc3c(c2)N(O)C(=O)C(N)C3)c1C` (stereo not shown) [Example 47, 3-amino-7-(2,3-dimethylphenyl)-1-hydroxy-3,4-dihydroquinolin-2(1H)-one, trifluoroacetate salt] and `NC1Cc2ccc(-c3ccco3)cc2N(O)C1=O` (stereo not shown) [Example 51, 3-amino-7-(2-furyl)-1-hydroxy-3,4-dihydroquinolin-2(1H)-one, trifluoroacetate salt] are within 1.5-fold of each other in IC50: 118 nM for the first, 101 nM for the second.

Compared with `CN(C)c1ccc(-c2ccc3c(c2)N(O)C(=O)C(N)C3)cn1` (stereo not shown) [Example 48, 3-amino-7-[6-(dimethylamino)pyridin-3-yl]-1-hydroxy-3,4-dihydroquinolin-2(1H)-one, trifluoroacetate salt], `CC(C)c1ccc(-c2ccc3c(c2)N(O)C(=O)C(N)C3)cc1` (stereo not shown) [Example 55, 3-amino-1-hydroxy-7-(4-isopropylphenyl)-3,4-dihydroquinolin-2(1H)-one, trifluoroacetate salt] is 3.7-fold lower in IC50: 523 nM for the first, 141 nM for the second.

For `NC1Cc2ccc(-c3ccc(C(F)(F)F)cc3)cc2N(O)C1=O` (stereo not shown) [Example 53, 3-amino-1-hydroxy-7-[4-(trifluoromethyl)phenyl]-3,4-dihydroquinolin-2(1H)-one, trifluoroacetate salt], the IC50 was 206 nM.

From patent US8183238B2, “Bicyclic and tricyclic compounds as KAT II inhibitors” (priority 2009, dated 2012)
